Measurements: patent publication US6750219B1, “Ω-amino-α-hydroxycarboxylic acid derivatives having integrin ανβ3 antagonistic activity” (Meiji Seika Kaisha, Ltd., priority 1999, dated 2004)
pIC50: −log10 of the molar value.

Assays:
solubility in water = assay type: physicochemical; conditions: dihydrochloride; data omitted
GP IIb/IIIa = GP IIb/IIIa (Homo sapiens, UniProt P05106+P08514); experiment: GP IIb/IIIa antagonistic activity (Pharmacological Test 2 in WO 94/21599); assay type: binding
Protocol: Pharmacological Test Example 2: GP IIb/IIIa Antagonistic Activity and Human Platelet Aggregation Inhibitory Activity
GP IIb/IIIa antagonistic activity was measured for the compounds according to the present invention. The measurement of the GP IIb/IIIa antagonistic activity was carried out according to the method described in Pharmacological Test 2 in WO 94/21599.

[1] = target: T1, integrin αvβ3 (vitronectin receptor purified from the human placenta) (Homo sapiens, UniProt P05106+P06756); experiment: αvβ3 binding assay (vitronectin-vitronectin receptor binding assay); conditions: vitronectin binding to vitronectin receptor purified from human placenta; read-out: integrin αvβ3 antagonistic activity (IC50)
T1 construct: a vitronectin receptor (protein content: 118 mg/ml) purified from the human placenta; from tissue; host or cells: human placenta
Protocol: Pharmacological Test Example 1: αvβ3 Binding Assay
Integrin αvβ3 antagonistic activity was first measured in a vitronectin-vitronectin receptor binding assay system in accordance with the method of Kouns et al. (W. C. Kouns, D. Kirchhofer, P. Hadvary, A. Edenhofer, T. Weller, G. Pfenninger, H. R. Baumgartner, L. K. Jennings and B. Steiner, Blood, 80, 2539-2547 (1992)). […] A 0.1 M citric acid buffer (pH 4.3) containing 0.05% NaN3 was added in an amount of […] to stop the reaction, followed by the measurement of the absorbance at 415 nm with a microplate reader (MTP 32, Corona Electric) (reference: 675 nm). The total binding was defined as the absorbance after a reaction using 50 ml of TBS-Tween instead of the test compound, and the non-specific binding (100% inhibition) was defined as the absorbance after a reaction using 50 ml of TBS-Tween containing 2×10^−3 M RGDS. The inhibition was calculated by the following equation: [formula]
IC50 was determined from a primary regression line of the logarithm of each concentration of the test compound and the logarithm of (100-inhibition)/inhibition.

Sequence of GP IIb/IIIa (P08514 32-887 limits assumed): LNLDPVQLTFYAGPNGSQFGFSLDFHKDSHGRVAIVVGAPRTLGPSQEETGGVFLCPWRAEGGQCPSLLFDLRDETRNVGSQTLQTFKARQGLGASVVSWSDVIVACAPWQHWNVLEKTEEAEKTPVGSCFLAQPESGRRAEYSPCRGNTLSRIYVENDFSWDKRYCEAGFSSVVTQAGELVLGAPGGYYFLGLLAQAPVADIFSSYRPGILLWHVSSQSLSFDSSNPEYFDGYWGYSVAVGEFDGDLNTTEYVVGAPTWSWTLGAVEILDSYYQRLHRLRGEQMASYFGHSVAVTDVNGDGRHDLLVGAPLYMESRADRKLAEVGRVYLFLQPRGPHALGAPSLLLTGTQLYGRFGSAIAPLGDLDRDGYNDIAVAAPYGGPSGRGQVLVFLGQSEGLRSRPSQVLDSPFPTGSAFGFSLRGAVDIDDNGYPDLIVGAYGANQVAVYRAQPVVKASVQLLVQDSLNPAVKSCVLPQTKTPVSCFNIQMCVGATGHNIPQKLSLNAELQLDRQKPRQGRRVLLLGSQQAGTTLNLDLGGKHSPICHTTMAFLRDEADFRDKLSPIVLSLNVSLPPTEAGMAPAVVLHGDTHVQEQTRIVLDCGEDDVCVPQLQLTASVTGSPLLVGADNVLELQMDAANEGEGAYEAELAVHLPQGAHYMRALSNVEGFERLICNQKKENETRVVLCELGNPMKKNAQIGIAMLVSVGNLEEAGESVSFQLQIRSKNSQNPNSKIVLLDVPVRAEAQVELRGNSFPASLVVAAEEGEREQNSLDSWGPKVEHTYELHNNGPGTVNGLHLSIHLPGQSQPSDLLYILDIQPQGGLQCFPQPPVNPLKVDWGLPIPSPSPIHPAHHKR
Sequence of GP IIb/IIIa (P08514 891-1039 limits assumed): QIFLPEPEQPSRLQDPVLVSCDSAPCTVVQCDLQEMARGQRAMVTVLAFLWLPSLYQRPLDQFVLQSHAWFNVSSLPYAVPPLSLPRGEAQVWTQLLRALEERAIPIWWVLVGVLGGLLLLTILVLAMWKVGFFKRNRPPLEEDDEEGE
Sequence of GP IIb/IIIa (P05106 27-788): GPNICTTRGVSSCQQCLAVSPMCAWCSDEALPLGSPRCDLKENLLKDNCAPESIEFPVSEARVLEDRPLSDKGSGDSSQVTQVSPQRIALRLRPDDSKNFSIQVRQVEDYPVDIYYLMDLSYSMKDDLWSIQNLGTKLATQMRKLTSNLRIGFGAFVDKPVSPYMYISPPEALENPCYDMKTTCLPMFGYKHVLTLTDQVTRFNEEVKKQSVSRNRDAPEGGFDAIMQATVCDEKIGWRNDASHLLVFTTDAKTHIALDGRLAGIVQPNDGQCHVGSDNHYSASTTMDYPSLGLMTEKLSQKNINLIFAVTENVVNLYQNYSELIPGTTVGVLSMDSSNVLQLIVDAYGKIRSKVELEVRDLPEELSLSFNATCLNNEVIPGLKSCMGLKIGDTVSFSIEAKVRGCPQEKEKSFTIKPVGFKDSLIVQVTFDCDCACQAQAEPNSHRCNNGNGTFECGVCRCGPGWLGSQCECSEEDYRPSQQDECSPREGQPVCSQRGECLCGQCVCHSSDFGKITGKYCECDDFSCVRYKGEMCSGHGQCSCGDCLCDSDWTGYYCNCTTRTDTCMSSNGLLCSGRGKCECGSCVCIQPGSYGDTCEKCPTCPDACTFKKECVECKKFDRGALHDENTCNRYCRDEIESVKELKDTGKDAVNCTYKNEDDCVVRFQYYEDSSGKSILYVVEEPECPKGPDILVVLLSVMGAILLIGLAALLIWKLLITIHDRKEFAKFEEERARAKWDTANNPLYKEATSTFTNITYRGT
T1 sequence (P06756 31-889 limits assumed): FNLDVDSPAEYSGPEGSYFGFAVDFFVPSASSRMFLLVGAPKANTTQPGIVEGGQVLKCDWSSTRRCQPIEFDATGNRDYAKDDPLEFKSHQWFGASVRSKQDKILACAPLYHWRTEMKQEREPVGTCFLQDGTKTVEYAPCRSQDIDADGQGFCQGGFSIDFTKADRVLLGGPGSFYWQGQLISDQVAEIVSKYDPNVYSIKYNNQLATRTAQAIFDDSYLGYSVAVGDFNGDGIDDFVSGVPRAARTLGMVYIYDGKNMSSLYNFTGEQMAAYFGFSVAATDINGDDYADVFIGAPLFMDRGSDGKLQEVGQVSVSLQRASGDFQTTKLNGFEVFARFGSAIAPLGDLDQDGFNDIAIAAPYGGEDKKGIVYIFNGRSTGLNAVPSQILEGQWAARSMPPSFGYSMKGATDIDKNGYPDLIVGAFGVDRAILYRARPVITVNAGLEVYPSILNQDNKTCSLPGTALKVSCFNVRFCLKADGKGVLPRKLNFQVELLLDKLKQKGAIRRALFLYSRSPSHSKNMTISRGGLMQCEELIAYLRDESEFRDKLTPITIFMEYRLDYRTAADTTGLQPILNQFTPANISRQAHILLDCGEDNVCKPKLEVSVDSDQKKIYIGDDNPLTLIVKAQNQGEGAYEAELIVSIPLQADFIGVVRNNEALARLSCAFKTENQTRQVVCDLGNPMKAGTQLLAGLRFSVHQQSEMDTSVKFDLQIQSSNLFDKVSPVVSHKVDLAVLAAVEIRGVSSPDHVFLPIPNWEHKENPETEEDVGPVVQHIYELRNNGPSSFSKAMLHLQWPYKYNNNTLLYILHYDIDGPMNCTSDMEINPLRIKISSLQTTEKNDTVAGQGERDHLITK
T1 sequence (P06756 891-1048 limits assumed): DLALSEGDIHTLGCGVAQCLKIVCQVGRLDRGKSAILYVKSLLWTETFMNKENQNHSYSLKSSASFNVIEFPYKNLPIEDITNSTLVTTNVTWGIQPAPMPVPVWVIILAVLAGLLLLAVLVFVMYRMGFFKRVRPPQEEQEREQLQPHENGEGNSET
T1 sequence (P05106 27-788): as the sequence (P05106 27-788) above

Row | solubility in water (solubility in water) | pIC50 (GP IIb/IIIa) | pIC50 [1] | SMILES
1 | soluble in water | 7.92 | 8.55 | O=C(NC[C@H](O)C(=O)O)c1ccc(N2CCC(NC3=NCCCN3)CC2)c(F)c1 [Example 14, 3-[3-Fluoro-4-{4-(1,4,5,6-tetrahydropyrimidin-2-ylamino)piperidin-1-yl}benzoylamino]-(2S)-hydroxypropionic acid]
2 | soluble in water | 8.32 | 7.64 | O=C(NC[C@H](O)C(=O)O)c1ccc(N2CCC(NC3=NCCCN3)CC2)cc1 [Example 6, (2S)-Hydroxy-3-[4-{4-(1,4,5,6-tetrahydropyrimidin-2-ylamino)piperidin-1-yl}benzoylamino]-propionic acid]
